According to patent US8097585B2, “Methods of treating inflammation by administration of heme oxygenase-1 and products of heme degradation” (priority 2002, dated 2012):
Counter-ions that a name gives are not always drawn.

Experiments:
[1] = system: DBA/2 cardiac allografts in B6AF1 recipients; experiment: Heterotopic cardiac allograft transplantation, graft survival; assay type: in vivo, mice
Experimental: Animals. Male DBA/2 (H-2^d), B6AF1 (H-2^k/d,b) and FVB (H-2^q) mice were purchased from Jackson Lab. Inc. (Bar Harbor, Me.). They were maintained in the institutional specific-pathogen free facility, which has an appropriate light cycle with free access to water and chow ad libitum, and used for experiments at age of 6-10 weeks.
Cardiac transplantation. DBA2/J and B6AF1 mice were used as donor and recipient, respectively. Heterotopic heart transplantation was carried out according to the procedure of Corry and Russell (Corry et al., Transplant Proc. 5(1):733-5, 1973). […] Secondary heart grafting into the neck was performed using a cuff technique as described previously (Matsuura et al., Transplantation 51(4):896-8, 1991). Briefly, the heart graft was harvested from either DBA2/J (donor strain) or FVB (third-party strain) mice. The right jugular vein and the right common carotid artery of recipient were dissected, and a cuff (polyethylene or polyimide) was connected to these vessels. The graft aorta and pulmonary artery were sleeved over the cuff on the recipient's common carotid artery and the jugular vein, respectively, and fixed with a ligature. After transplantation, beating of the graft was monitored by daily palpation, and scored +1 to +4 according to the strength of graft contractions. Graft rejection was defined as cessation of beating, and was confirmed by direct inspection followed by histological examination.
Donor and recipient mice were treated either with CoPPIX (5 mg/kg/day), ZnPPIX (5 mg/kg/day) or biliverdin (administered once, twice or three times per day at a dose of 50 μmol/kg/dose). All reagents were administered by intraperitoneal (i.p.) injection. Donor animals were treated for 2 days, starting from 2 days before graft harvest (day-2 and day-1). Treatment of recipient mice was initiated one day before transplantation, and continued until 13 days post-transplant (day-1 to day 13). For the experiments using donor splenocyte infusion (DSI) on day-7 (DSI (D-7)), treatments of recipient animals (either with CoPPIX or ZnPPIX) started from day-8 and were terminated on day 6. Recipients received no further treatment. Spleen cells (2×10^7) isolated from DBA/2J mice as described herein were used for DSI treatment. The cells were injected via the penile vein with 200 μl of 0.9% saline solution.
Statistics. Cardiac graft survival was plotted by the Kaplan-Meier method, and a log-rank test was applied to compare statistical significance. Expression levels of HO-1/α-actin protein are expressed as mean±standard deviation. Other data are expressed as mean±standard error of the mean (mean±SEM). Intergroup statistical analysis was performed by one-way ANOVA, and Fisher's PSLD was used for a post-hoc test. A comparison was considered statistically significant when the p-value was <0.05.

recipient splenocytes = experiment: Mixed lymphocyte culture with splenocytes of treated cardiac allograft recipients; assay type: in vivo, mice
Experimental: Mixed lymphocyte culture (MLC). Irradiated (25Gy, ^137Cs) DBA/2 splenocytes (5×10^5/well) were co-cultured with responders (5×10^5/well) in a 96 well round bottom plates for 3 days at 37° C., 95% air with 5% CO2. When using cells from cardiac recipients as responders, the co-culture period was 3 days without any further in vitro treatment. ^3H-thymidine (1 μCi/well) was added 16 hours before termination of cell culture, and ^3H-thymidine incorporation was measured.
Induction of HO-1 expression or biliverdin administration suppresses the T cell mediated alloimmune response in vivo. […] Recipient splenocytes harvested 5 days after cardiac transplantation were used as responder cells in an in vitro culture with DBA/2 splenocytes as feeder cells. Proliferation was measured at 72 hours (FIG. 9).

[2] = system: LPS-induced lung inflammation; experiment: Endotoxic shock (LPS) model, bronchoalveolar lavage; assay type: in vivo, Sprague-Dawley rats; settings: BAL 24 hours after LPS
Experimental: Treatment Protocol. Endotoxin (lipopolysaccharide/LPS; Sigma; E. coli serotype 0128:B7; 3 mg/kg, i.v.) was administered to male Sprague-Dawley, resulting in an acute non-lethal inflammation. In rats, a sublethal dose of LPS results in a moderate lung inflammation characterized by neutrophil accumulation and protein accumulation in the airspace, both markers of lung inflammation. The pro-inflammatory cytokine TNF-alpha increases very rapidly in the serum, peaking by 60-90 minutes. This is followed by increases in IL-10, a prototypical anti-inflammatory cytokine that peaks 8-12 hr later.
Administration of Biliverdin. Biliverdin (Frontier Scientific: prepared in PBS following solubilization in NaOH) was administered i.p. at […] 17 hours prior to, one hour prior to, and eight hours after LPS administration.
Bronchoalveolar Lavage. A bronchoalveolar lavage (BAL) was performed 24 hours after LPS administration. Serum cytokines were measured using commercially available ELISA kits (R&D Systems Inc.) per the manufacturer's instructions. Total protein was determined via a standard Bradford assay based on a standard curve. […] Total cell count was determined as well as differential analysis of cell type and morphology via Diff-Quik® Fixative (American Scientific Products) staining of a sample of the lavagate.

[3] = long-term acceptors after biliverdin, second set transplantation, n=3

SMILES | grafts surviving long-term, >100 days ([1]; 5 mg/kg/day i.p., donor from day-2, recipient day-1 to day 13, 2 of 6) [%] | MST of the other 4 rejected grafts ([1]; CoPPIX 5 mg/kg/day i.p.) [days] | allografts surviving over 100 days ([1]; CoPPIX (donor 2 days, recipient day-8 to day 6) plus DSI (D-7), 7/7) [%] | grafts surviving long-term for more than 100 days ([1]; CoPPIX together with DSI (D0), 7 of 8) [%] | proliferation of recipient splenocytes (recipient splenocytes; harvested 5 days after cardiac transplantation, 72 hours culture with DBA/2 splenocytes, compared to controls) | grafts surviving for more than 100 days ([1]; biliverdin two (every 12 hours) or three (every 8 hours) times per day, 50 μmol/kg per dose, 4 of 6) [%] | acceptance of secondary heart graft from the donor strain [1, 3] | rejection of third party (FVB) graft [1, 3] [days] | graft median survival time (MST) ([1]; one dose per day i.p. (ZnPPIX 5 mg/kg; biliverdin 50 μmol/kg), untreated 11.5 days) [days] | neutrophil accumulation in the airspace [2] | protein accumulation in the airspace [2] | proliferation of recipient splenocytes (recipient splenocytes; biliverdin 50 μmol/kg, one dose per day) | proliferation of recipient splenocytes (recipient splenocytes; biliverdin 50 μmol/kg, three doses per day)
C=CC1=C(C)c2cc3[n-]c(cc4nc(cc5[n-]c(cc1n2)c(C)c5CCC(=O)[O-])C(CCC(=O)[O-])=C4C)c(C)c3C=C.[Co+2].[H+].[H+] [CoPP, Cobalt protoporphyrin] | 33.3 | 18 | 100 | 87.5 | inhibited splenocyte proliferation in a significant manner | – | – | – | – | – | – | – | –
C=CC1=C(C)/C(=C/C2=NC(=C\c3[nH]c(/C=C4\NC(=O)C(C)=C4C=C)c(C)c3CCC(=O)O)/C(CCC(=O)O)=C2C)NC1=O [biliverdin, biliverdin dihydrochloride] | – | – | – | – | – | 66.7 | more than 60 days | ≤ 11 | 20.5 | reduced | reduced | significantly suppressed | significantly suppressed
